US20210070748A1, “INHIBITORS OF BRUTONS TYROSINE KINASE” (Pharmacyclics LLC, priority 2015, published 2021)
Counter-ions that a name gives are not always drawn. Like-named read-outs stand apart in the source and are kept apart here.

What was measured:
Type in all cases: biochemical
BTK-WT = biological target: T1, BTK-WT (Homo sapiens, UniProt Q06187); assay: Btk in vitro inhibitory activity (one of Method A TR-FRET, Method B electrophoretic mobility shift, Method C radiometric filter binding)
T1 construct: purified from insect cells as a full-length construct containing an N-terminal 6X-His tag; His6 (N); made in house; host or cells: insect cells (baculovirus Sf21 in Method B)
T1 sequence (Q06187 whole entry): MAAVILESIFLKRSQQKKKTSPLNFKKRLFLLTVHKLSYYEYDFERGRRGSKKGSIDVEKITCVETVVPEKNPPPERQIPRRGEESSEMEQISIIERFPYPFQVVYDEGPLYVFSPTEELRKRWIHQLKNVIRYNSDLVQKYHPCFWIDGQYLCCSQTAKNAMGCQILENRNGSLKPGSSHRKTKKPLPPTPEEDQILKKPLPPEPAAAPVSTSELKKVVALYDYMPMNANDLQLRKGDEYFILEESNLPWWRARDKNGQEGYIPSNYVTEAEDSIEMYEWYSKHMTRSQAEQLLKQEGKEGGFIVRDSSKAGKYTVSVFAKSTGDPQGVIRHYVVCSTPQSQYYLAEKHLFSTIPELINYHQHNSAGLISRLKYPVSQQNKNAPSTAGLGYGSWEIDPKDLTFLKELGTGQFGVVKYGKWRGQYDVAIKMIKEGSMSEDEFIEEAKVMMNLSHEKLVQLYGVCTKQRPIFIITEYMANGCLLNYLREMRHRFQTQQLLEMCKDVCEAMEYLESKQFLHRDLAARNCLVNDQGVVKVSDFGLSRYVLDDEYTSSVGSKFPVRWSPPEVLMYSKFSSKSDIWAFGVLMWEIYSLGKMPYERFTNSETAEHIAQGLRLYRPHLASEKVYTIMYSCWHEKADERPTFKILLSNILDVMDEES

JAK3 = biological target: T2, JAK3 (Homo sapiens, UniProt P52333); assay: Inhibition of a panel of kinases, in vitro HotSpot kinase assay: JAK3; conditions: Table 12, Formula C-I; 1 μM ATP; read-out: JAK3 (IC50)
T2 sequence (P52333 1-1124): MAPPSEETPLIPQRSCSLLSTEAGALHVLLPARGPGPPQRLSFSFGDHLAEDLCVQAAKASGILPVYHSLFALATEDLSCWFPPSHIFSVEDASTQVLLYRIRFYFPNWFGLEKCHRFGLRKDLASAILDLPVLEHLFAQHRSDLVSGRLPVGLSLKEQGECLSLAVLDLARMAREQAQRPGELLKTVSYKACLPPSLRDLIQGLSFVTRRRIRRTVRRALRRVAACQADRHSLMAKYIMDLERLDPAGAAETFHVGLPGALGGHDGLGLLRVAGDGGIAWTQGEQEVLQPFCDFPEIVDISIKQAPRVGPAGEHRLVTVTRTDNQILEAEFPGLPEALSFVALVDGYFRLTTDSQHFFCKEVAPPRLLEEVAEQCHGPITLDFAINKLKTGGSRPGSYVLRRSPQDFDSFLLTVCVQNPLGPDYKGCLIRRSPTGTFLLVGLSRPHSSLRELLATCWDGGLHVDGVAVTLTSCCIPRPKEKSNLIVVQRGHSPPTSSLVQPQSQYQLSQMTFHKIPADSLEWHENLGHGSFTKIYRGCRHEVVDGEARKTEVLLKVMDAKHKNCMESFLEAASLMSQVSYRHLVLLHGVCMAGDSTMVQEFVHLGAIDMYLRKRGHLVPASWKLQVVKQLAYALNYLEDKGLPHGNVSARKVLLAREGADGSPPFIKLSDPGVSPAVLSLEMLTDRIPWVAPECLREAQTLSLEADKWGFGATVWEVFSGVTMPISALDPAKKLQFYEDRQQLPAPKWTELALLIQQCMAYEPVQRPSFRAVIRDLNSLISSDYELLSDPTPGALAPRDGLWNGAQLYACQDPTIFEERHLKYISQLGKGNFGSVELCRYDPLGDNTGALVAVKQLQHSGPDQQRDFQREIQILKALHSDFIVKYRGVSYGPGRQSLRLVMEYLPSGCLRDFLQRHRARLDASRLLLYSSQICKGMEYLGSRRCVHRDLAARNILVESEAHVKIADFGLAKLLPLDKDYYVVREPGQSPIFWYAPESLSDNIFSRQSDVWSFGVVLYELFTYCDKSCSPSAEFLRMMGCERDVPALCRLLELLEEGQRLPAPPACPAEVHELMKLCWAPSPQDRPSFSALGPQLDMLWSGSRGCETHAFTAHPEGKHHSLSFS

LCK = LCK (Homo sapiens, UniProt P06239); assay: Inhibition of a panel of kinases, in vitro HotSpot kinase assay: LCK; conditions: Table 12, Formula C-I; 1 μM ATP; read-out: LCK (IC50)
Chain of LCK (P06239 whole entry): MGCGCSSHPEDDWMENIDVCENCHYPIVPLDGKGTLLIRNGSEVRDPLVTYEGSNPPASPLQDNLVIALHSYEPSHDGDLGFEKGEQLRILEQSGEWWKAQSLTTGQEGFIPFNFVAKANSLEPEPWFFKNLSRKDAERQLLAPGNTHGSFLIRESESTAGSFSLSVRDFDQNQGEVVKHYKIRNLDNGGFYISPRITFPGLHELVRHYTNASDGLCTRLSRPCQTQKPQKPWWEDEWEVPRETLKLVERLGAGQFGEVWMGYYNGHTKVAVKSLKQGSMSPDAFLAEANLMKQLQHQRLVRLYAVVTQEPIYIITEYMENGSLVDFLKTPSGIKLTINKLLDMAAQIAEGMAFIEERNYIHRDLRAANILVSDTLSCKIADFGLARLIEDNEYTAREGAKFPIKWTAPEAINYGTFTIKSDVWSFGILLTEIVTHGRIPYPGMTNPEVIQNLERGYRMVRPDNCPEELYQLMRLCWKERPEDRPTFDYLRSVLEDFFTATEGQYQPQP

ITK = biological target: T3, ITK (Homo sapiens, UniProt Q08881); assay: Inhibition of a panel of kinases, in vitro HotSpot kinase assay: ITK; conditions: E compounds, Table 17
T3 sequence (Q08881 1-620): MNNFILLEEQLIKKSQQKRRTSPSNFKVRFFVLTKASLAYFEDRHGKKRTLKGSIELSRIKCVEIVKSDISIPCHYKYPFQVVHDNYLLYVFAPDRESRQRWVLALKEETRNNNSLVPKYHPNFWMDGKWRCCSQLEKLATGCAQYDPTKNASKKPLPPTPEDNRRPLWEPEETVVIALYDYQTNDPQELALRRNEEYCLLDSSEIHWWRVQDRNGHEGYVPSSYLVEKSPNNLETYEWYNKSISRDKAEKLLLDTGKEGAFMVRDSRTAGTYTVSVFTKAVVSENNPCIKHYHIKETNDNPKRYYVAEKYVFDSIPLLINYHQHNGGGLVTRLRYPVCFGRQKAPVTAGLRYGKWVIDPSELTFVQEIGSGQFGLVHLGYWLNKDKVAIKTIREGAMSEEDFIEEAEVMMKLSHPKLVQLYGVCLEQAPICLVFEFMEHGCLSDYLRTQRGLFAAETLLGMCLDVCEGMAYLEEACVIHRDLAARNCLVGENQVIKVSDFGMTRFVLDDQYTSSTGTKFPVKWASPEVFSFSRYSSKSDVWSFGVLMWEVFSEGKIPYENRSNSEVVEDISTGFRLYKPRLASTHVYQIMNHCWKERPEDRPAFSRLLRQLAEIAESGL
Protocol: (§1) The degree of inhibition of a panel of kinases is determined using the in vitro HotSpot kinase assay (purified enzymes, ^33P-ATP, an appropriate substrate and 1 μM ATP).

TEC = biological target: T4, TEC (Homo sapiens, UniProt P42680); assay: Inhibition of a panel of kinases, in vitro HotSpot kinase assay: TEC; conditions: E compounds, Table 17
T4 sequence (P42680 1-631): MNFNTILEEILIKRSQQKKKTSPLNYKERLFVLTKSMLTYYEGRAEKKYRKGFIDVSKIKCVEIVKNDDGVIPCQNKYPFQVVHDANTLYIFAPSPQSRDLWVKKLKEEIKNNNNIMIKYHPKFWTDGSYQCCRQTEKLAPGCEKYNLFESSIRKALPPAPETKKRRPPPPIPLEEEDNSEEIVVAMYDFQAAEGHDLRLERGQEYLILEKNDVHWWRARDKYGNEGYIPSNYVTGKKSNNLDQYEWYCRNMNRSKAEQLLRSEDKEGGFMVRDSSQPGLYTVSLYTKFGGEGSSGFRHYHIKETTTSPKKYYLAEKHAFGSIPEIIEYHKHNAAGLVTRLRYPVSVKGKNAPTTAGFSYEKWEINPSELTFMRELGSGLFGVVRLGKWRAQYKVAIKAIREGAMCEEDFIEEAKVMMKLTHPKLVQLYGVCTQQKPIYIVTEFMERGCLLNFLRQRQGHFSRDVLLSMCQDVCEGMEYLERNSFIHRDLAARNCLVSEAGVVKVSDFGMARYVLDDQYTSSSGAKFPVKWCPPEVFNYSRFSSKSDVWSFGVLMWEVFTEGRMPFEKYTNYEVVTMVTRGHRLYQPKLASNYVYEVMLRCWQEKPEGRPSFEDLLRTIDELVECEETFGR
Protocol: as §1

[1] = Table 12, Formula C-I, read-out: BTK-WT (IC50)
[2] = E compounds, Table 17, read-out: IC50 BTK-WT

| Compound | IC50 (BTK-WT; [1]) | IC50 (JAK3) | IC50 (LCK) | IC50 (BTK-WT; [2]) | IC50 (ITK) | IC50 (TEC) |
| --- | --- | --- | --- | --- | --- | --- |
| Cc1cc(Nc2nc(N(C)[C@H]3CCCN(C(=O)N(C)C)C3)cnc2C(N)=O)sn1 [Example C-8, 5-([(3S)-1-(dimethylcarbamoyl)piperidin-3-yl](methyl)amino)-3-[(3-methyl-1,2-thiazol-5-yl)amino]pyrazine-2-carboxamide] | 0.1 to 1 µM | 1 to 10 µM | 1 to 10 µM | – | – | – |
| Cc1cc(Nc2nc(N[C@H]3CCN(C(=O)N(C)C)C3)cnc2C(N)=O)sn1 [Example C-10, 5-{[(3S)-1-(dimethylcarbamoyl)pyrrolidin-3-yl]amino}-3-[(3-methyl-1,2-thiazol-5-yl)amino]pyrazine-2-carboxamide] | ≤ 0.1 µM | 0.1 to 1 µM | 0.1 to 1 µM | – | – | – |
| Cc1cc(Nc2nc(N[C@@H]3CCN(C(=O)c4ccccc4)C3)cnc2C(N)=O)sn1 [Example C-11, 5-{[(3R)-1-benzoylpyrrolidin-3-yl]amino}-3-[(3-methyl-1,2-thiazol-5-yl)amino]pyrazine-2-carboxamide hydrochloride] | ≤ 0.1 µM | 1 to 10 µM | 1 to 10 µM | – | – | – |
| Cc1cc(Nc2nc(N[C@@H]3CCN(C(=O)N(C)C)C3)cnc2C(N)=O)sn1 [Example C-12, 5-([(3R)-1-(dimethylcarbamoyl)pyrrolidin-3-yl]amino)-3-[(3-methyl-1,2-thiazol-5-yl)amino]pyrazine-2-carboxamide] | 0.1 to 1 µM | 0.1 to 1 µM | 0.1 to 1 µM | – | – | – |
| Cc1cc(Nc2nc(N[C@@H]3CCN(C(=O)c4ccc(N(C)C)cc4)C3)cnc2C(N)=O)sn1 [Example C-13, 5-([(3R)-1-[4-(dimethylamino)benzoyl]pyrrolidin-3-yl]amino)-3-[(3-methyl-1,2-thiazol-5-yl)amino]pyrazine-2-carboxamide] | ≤ 0.1 µM | 1 to 10 µM | 1 to 10 µM | – | – | – |
| Cc1cc(Nc2nc(N(C)CC3CCN(C(=O)N(C)C)CC3)cnc2C(N)=O)sn1 [Example C-14, 5-({[1-(dimethylcarbamoyl)piperidin-4-yl]methyl}(methyl)amino)-3-[(3-methyl-1,2-thiazol-5-yl)amino]pyrazine-2-carboxamide] | 0.1 to 1 µM | 1 to 10 µM | 1 to 10 µM | – | – | – |
| Cc1cc(Nc2nc(N(C)CC3CCN(C(=O)c4ccccc4)CC3)cnc2C(N)=O)sn1 [Example C-15, 5-{[(1-benzoylpiperidin-4-yl)methyl](methyl)amino}-3-[(3-methyl-1,2-thiazol-5-yl)amino]pyrazine-2-carboxamide] | 0.1 to 1 µM | 1 to 10 µM | 1 to 10 µM | – | – | – |
| Cc1cc(Nc2nc(N(C)CC3CCN(C(=O)c4ccc(N(C)C)cc4)CC3)cnc2C(N)=O)sn1 [Example C-16, 5-[({1-[4-(dimethylamino)benzoyl]piperidin-4-yl}methyl)(methyl)amino]-3-[(3-methyl-1,2-thiazol-5-yl)amino]pyrazine-2-carboxamide] | 0.1 to 1 µM | 1 to 10 µM | 1 to 10 µM | – | – | – |
| C=CC(=O)N1CC[C@H](Nc2nnc(C(N)=O)c(Nc3cccc(C(=O)Nc4ccc(C(C)C)c(C)c4)c3)n2)C1 [Example C-29, (S)-3-(1-acryloylpyrrolidin-3-ylamino)-5-(3-(4-isopropyl-3-methylphenyl-carbamoyl)phenyl-amino)-1,2,4-triazine-6-carboxamide] | ≤ 0.1 µM | < 0.1 µM | > 10 µM | – | – | – |
| C=CC(=O)N1CC[C@@H](Nc2nnc(C(N)=O)c(Nc3cccc(C(=O)Nc4ccc(C(C)C)c(C)c4)c3)n2)C1 [Example C-30, (R)-3-(1-acryloylpyrrolidin-3-ylamino)-5-(3-(4-isopropyl-3-methylphenyl-carbamoyl)phenyl-amino)-1,2,4-triazine-6-carboxamide] | ≤ 0.1 µM | 0.1 to 1 µM | > 10 µM | – | – | – |
| C=CC(=O)N1CC[C@H](Nc2nnc(C(N)=O)c(Nc3ccc(C(C)C)cc3)n2)C1 [Example C-31, (S)-3-(1-acryloylpyrrolidin-3-ylamino)-5-(4-isopropylphenylamino)-1,2,4-triazine-6-carboxamide] | ≤ 0.1 µM | < 0.1 µM | 0.1 to 1 µM | – | – | – |
| C=CC(=O)N1CC[C@@H](Nc2nnc(C(N)=O)c(Nc3ccc(C(C)C)cc3)n2)C1 [Example C-32, (R)-3-(1-acryloylpyrrolidin-3-ylamino)-5-(4-isopropylphenylamino)-1,2,4-triazine-6-carboxamide] | ≤ 0.1 µM | < 0.1 µM | 0.1 to 1 µM | – | – | – |
| Cc1cc(Nc2nc(N(C)[C@@H]3CCN(C(=O)c4ccc(C(O)(C(F)(F)F)C(F)(F)F)cc4)C3)nnc2C(N)=O)sn1 [Example E-13, (R)-3-((1-(4-(1,1,1,3,3,3-hexafluoro-2-hydroxypropan-2-yl)benzoyl)pyrrolidin-3-yl)(methyl)amino)-5-(3-methylisothiazol-5-ylamino)-1,2,4-triazine-6-carboxamide] | – | – | – | 0.01 to 0.1 µM | 0.1 to 1 µM | 0.1 to 1 µM |
| C=CC(=O)N1CC[C@@H](N(C)c2nnc(C(N)=O)c(Nc3ccc(C(O)(C(F)(F)F)C(F)(F)F)cc3)n2)C1 [Example E-16, (R)-3-((1-acryloylpyrrolidin-3-yl)(methyl)amino)-5-(4-(1,1,1,3,3,3-hexafluoro-2-hydroxypropan-2-yl)phenylamino)-1,2,4-triazine-6-carboxamide] | – | – | – | ≤ 0.01 µM | ≤ 0.01 µM | ≤ 0.01 µM |
| C=CC(=O)N1CCC[C@@H](Nc2nnc(C(N)=O)c(Nc3ccc(C(C)C)c(C)c3)n2)C1 [Example E-42, (R)-3-(1-acryloylpiperidin-3-ylamino)-5-(4-isopropyl-3-methylphenylamino)-1,2,4-triazine-6-carboxamide] | – | – | – | ≤ 0.01 µM | 0.01 to 0.1 µM | ≤ 0.01 µM |
| C=CC(=O)N1CCC[C@@H](Nc2nnc(C(N)=O)c(Nc3ccc(C)cc3)n2)C1 [Example E-43, (R)-3-(1-acryloylpiperidin-3-ylamino)-5-(p-tolylamino)-1,2,4-triazine-6-carboxamide] | – | – | – | ≤ 0.01 µM | 0.01 to 0.1 µM | ≤ 0.01 µM |
